Measurements taken from patent US20030175314A1, “Pharmaceutical composition for dermal application” (priority 2001, published 2003).

Assays:
[1] = system: secretion of proinflammatory cytokines such as tumour necrosis factor α (TNF-α), IL-10, IL-12 and IFN-γ; experiment: in vitro secretion of proinflammatory cytokines; type: cell-based; settings: in vitro studies
Text: (§1) The compound of formula I, 1,3-dicyclopropylmethyl-8-aminoxanthine, is also known by the proposed generic name cipamfylline. The compound and a method of its preparation is disclosed in U.S. Pat. No. 5,734,051 which is hereby incorporated by reference in its entirety.

[2] = type: physicochemical
Text: More specifically, the solvent comprises a non-toxic glycol or glycol ether selected from the group consisting of propylene glycol, butylene glycol, diethylene glycol and diethylene glycol ether. […] The advantageous dissolution properties of propylene glycol may be explained by the solubility properties of this particular solvent, as determined by the Hildebrand solubility coefficient (J H Hildebrand and R L Scott, The Solubility of Non-Electrolytes, Reinhold, N.Y., 1949). […] Thus propylene glycol has a Hildebrand coefficient within ±2 units of that of cipamfylline which makes it an effective solvent for this active component.

lymphocyte proliferation = experiment: in vitro lymphocyte proliferation; type: cell-based; settings: in vitro studies
Text: as §1

PDE4 = experiment: in vitro PDE4 inhibition; type: biochemical; settings: in vitro studies
Text: as §1

atopic dermatitis = experiment: phase II left/right study, cipamfylline cream vs vehicle or Locoid cream (Example 2); type: in vivo, Humans; settings: for decrease of total severity score: 1 g twice daily, two weeks
Method: In a phase II, multi-centre, randomised, double-blind left/right study comparing cipamfylline cream 1.5 mg/g (formulation B) with the reference vehicle without cipamfylline and with Locoid cream 0.1% (hydrocortisone-17-butyrate 0.1% cream) in patients suffering from atopic dermatitis, patients were randomised to either group (1) cipamfylline cream 1.5 mg/g in reference vehicle vs vehicle or (2) cipamfylline cream 1.5 mg/g in reference vehicle vs Locoid cream. One g of each cream were applied twice daily for two weeks. A total number of 108 patients with a clinical diagnosis of atopic dermatitis, with symmetrical lesions of atopic dermatitis on their arms with a minimum score of 6 in the total severity score (ratings of erythema, oedema/papulation, oozing/crusting, excoriations and lichenification on a scale from 0-3) were included. Excluded were patients with suspected infection in the treatment areas, patients who were receiving other treatment for atopic dermatitis or who were pregnant or planning to become pregnant in the course of the study.

solubility = type: physicochemical
Method: Cipamfylline has a pronounced inner crystal bonding resulting in a high melting point (about 310-312° C.) and some degree of hydrophobicity. […] On the other hand, effective delivery of the active component into the epidermis where it can exert its effect requires that the compound be present in a dissolved state in said composition.

skin = skin irritation by the solvent; type: in vivo; settings: propylene glycol in itself
Text: Apart from being a solvent for cipamfylline, propylene glycol as a secondary penetration enhancer, i.e. a substance which is capable of penetrating the stratum corneum and “draw” low-molecular components such as therapeutically active components in the vehicle into the epidermis. […] For this reason, propylene glycol has previously been thought to be unsuitable for inclusion as a solvent in compositions intended for the treatment of atopic dermatitis. However, the present vehicle has been specifically designed to exclude all excipients which are capable of penetrating into the epidermis (or being “drawn” into the epidermis by the solvent) and which are not essential for formulation purposes, resulting in a composition which, according to the clinical tests described in Example 3 herein, gives rise to fewer irritative reactions in skin on which the composition is applied compared to a conventional reference formulation. This, of course, is particularly important for dermal formulations intended for application on inflamed, and therefore highly irritated skin so as to avoid a painful burning sensation at the site of application and more long-term irritation such as pain or itching.

| solubility (solubility; water) | solubility with water as co-solvent (solubility; water present as a co-solvent in an amount of about 25% or more) | Compound | inhibition of the secretion of proinflammatory cytokines (TNF-α, IL-10, IL-12, IFN-γ) [1] | Hildebrand coefficient (solubility parameter δ) [2] | effect on lymphocyte proliferation (lymphocyte proliferation) | inhibition of PDE4 (PDE4) | decrease of total severity score (atopic dermatitis; group (1) cipamfylline cream 1.5 mg/g (formulation B) vs vehicle, end of study) | decrease of total severity score (atopic dermatitis; group (2) cipamfylline cream 1.5 mg/g (formulation B) vs Locoid cream 0.1%, end of treatment) | patients with local adverse reactions (burning, stinging, pruritus) (atopic dermatitis; treated side, cipamfylline cream 1.5 mg/g vs vehicle) | skin irritation (skin) |
| --- | --- | --- | --- | --- | --- | --- | --- | --- | --- | --- |
| < 50 µg/mL | greatly decreased | Nc1nc2c([nH]1)c(=O)n(CC1CC1)c(=O)n2CC1CC1 [cipamfylline, 1,3-dicyclopropylmethyl-8-aminoxanthine] | inhibitor | about 13.4 (cal/cm^3)^1/2 | no effect | potent and selective inhibitor | 38% | 30% | 15 % of the patients |  |
|  |  | CC(O)CO (centres unmarked) [propylene glycol] |  | about 14.8 (cal/cm^3)^1/2 |  |  |  |  |  | does not in itself give rise to any significant skin irritation |
